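Each compound was tested at five concentrations against cells in 96-well plates for 48 hours. The concentration for full growth arrest is given as TGI.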
What was measured:
Test in all cases: inhibition of tumour cell growth, NCI panel, 48 h
HCT-15 colon = test system: HCT-15 colon
HOP-92 NSCLC = test system: HOP-92 NSCLC
M19-MEL melanoma = test system: M19-MEL melanoma
SF-295 CNS = test system: SF-295 CNS
SW-620 colon = test system: SW-620 colon
SR leukemia = test system: SR leukemia
A549 NSCLC = test system: A549 NSCLC
NCI-H23 lung = test system: NCI-H23 lung
SNB-19 CNS = test system: SNB-19 CNS
SF-268 CNS = test system: SF-268 CNS
SF-539 CNS = test system: SF-539 CNS
OVCAR-3 ovarian = test system: OVCAR-3 ovarian
RXF 393 renal = test system: RXF 393 renal
HT29 colon = test system: HT29 colon
U251 CNS = test system: U251 CNS
EKVX NSCLC = test system: EKVX NSCLC
SK-MEL-28 melanoma = test system: SK-MEL-28 melanoma
LXFL 529 NSCLC = test system: LXFL 529 NSCLC
KM12 colon = test system: KM12 colon
IGROV1 ovarian = test system: IGROV1 ovarian
UACC-62 melanoma = test system: UACC-62 melanoma
CAKI-1 renal = test system: CAKI-1 renal
MALME-3M melanoma = test system: MALME-3M melanoma
HL-60(TB) leukemia = test system: HL-60(TB) leukemia
M14 melanoma = test system: M14 melanoma
OVCAR-5 ovarian = test system: OVCAR-5 ovarian
HOP-62 NSCLC = test system: HOP-62 NSCLC
OVCAR-4 ovarian = test system: OVCAR-4 ovarian
DMS 114 small cell lung = test system: DMS 114 small cell lung
SK-MEL-5 melanoma = test system: SK-MEL-5 melanoma
RXF-631 renal = test system: RXF-631 renal
MOLT-4 leukemia = test system: MOLT-4 leukemia
DLD-1 colon = test system: DLD-1 colon
LOX IMVI melanoma = test system: LOX IMVI melanoma
HCT-116 colon = test system: HCT-116 colon
OVCAR-8 ovarian = test system: OVCAR-8 ovarian
SNB-78 CNS = test system: SNB-78 CNS
KM20L2 colon = test system: KM20L2 colon
SK-MEL-2 melanoma = test system: SK-MEL-2 melanoma
ACHN renal = test system: ACHN renal
UO-31 renal = test system: UO-31 renal
UACC-257 melanoma = test system: UACC-257 melanoma
NCI-H226 lung = test system: NCI-H226 lung
K-562 leukemia = test system: K-562 leukemia
HCC-2998 colon = test system: HCC-2998 colon
786-0 renal = test system: 786-0 renal
CCRF-CEM leukemia = test system: CCRF-CEM leukemia
COLO 205 colon = test system: COLO 205 colon
SK-OV-3 ovarian = test system: SK-OV-3 ovarian
HOP-18 NSCLC = test system: HOP-18 NSCLC
NCI-H460 lung = test system: NCI-H460 lung
SN12C renal = test system: SN12C renal

Measured: TGI

Cc1ccc(C)c(NC(=O)CC/C(=N\NC(=O)C(N)=O)C(C)C(=O)c2ccc(O)cc2)c1 (configuration not stated)
> 100 µM: HCT-15 colon | HOP-92 NSCLC | M19-MEL melanoma | SF-295 CNS | SW-620 colon | SR leukemia | A549 NSCLC | NCI-H23 lung | SNB-19 CNS | SF-268 CNS | SF-539 CNS | OVCAR-3 ovarian | RXF 393 renal | HT29 colon | U251 CNS | EKVX NSCLC | SK-MEL-28 melanoma | LXFL 529 NSCLC | KM12 colon | IGROV1 ovarian | UACC-62 melanoma | CAKI-1 renal | MALME-3M melanoma | HL-60(TB) leukemia | M14 melanoma | OVCAR-5 ovarian | HOP-62 NSCLC | OVCAR-4 ovarian | DMS 114 small cell lung | SK-MEL-5 melanoma | RXF-631 renal | MOLT-4 leukemia | DLD-1 colon | LOX IMVI melanoma | HCT-116 colon | OVCAR-8 ovarian | SNB-78 CNS | KM20L2 colon | SK-MEL-2 melanoma | ACHN renal | UO-31 renal | UACC-257 melanoma | NCI-H226 lung | K-562 leukemia | HCC-2998 colon | 786-0 renal | CCRF-CEM leukemia | COLO 205 colon | SK-OV-3 ovarian | HOP-18 NSCLC | NCI-H460 lung | SN12C renal
